Results as given in ChEMBL document CHEMBL1201862, “PubChem BioAssay data set” (2004).
Active and inactive are the calls of the source.

Assays:
[1] = viability of PTEN-deleted HCT116 cells – cell-based, HCT116 PTEN knockout, dose response (AID 1047); format: functional;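 further: HCT116 colon tumor cells with PTEN knocked out; cells exposed to compound for 60 hours before readout; potency for loss of cell viability measured by luminescence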
[2] = target: Heat shock protein HSP 90-alpha (Homo sapiens, UniProt P07900); format: functional, organism-based
[3] = HEK-293T viability loss after treatment – luminescence, T-cell screen hits, cytotoxicity control for TCR NF-kB inhibitor project, dose response (AID 489026); format: functional, cell-based;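 further: cells exposed to compound about 14 hours before the viability readout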
[4] = target: Eukaryotic translation initiation factor 4E (Mus musculus, UniProt P63073); experiment: blockers of eIF4G binding by eIF4E – biochemical, TR-FRET, dose response (AID 855); format: functional;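 further: potency for disrupting eIF4E binding to eIF4GI seen as loss of FRET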
Sequence of Eukaryotic translation initiation factor 4E (P63073 whole entry): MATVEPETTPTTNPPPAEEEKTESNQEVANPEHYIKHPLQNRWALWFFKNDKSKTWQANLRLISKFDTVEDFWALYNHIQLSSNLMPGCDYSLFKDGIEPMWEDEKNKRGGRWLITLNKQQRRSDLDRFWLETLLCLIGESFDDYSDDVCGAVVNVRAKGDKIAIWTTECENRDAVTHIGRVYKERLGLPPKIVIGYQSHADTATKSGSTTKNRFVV

[5] = target: T1, Small ubiquitin-related modifier 1 (Homo sapiens, UniProt P63165); experiment: SUMO1 protein interaction blockers, potency – biochemical, fluorescence polarization, uHTS hits, dose response (AID 624382); format: functional; conditions: read-out: IC50_Mean
T1 sequence (P63165 whole entry): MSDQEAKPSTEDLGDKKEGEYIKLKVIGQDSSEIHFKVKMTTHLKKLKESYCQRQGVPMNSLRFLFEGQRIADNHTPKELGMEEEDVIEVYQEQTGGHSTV

[6] = target: T2, Apoptotic protease-activating factor 1 (Homo sapiens, UniProt O14727); format: functional
T2 sequence (O14727 whole entry): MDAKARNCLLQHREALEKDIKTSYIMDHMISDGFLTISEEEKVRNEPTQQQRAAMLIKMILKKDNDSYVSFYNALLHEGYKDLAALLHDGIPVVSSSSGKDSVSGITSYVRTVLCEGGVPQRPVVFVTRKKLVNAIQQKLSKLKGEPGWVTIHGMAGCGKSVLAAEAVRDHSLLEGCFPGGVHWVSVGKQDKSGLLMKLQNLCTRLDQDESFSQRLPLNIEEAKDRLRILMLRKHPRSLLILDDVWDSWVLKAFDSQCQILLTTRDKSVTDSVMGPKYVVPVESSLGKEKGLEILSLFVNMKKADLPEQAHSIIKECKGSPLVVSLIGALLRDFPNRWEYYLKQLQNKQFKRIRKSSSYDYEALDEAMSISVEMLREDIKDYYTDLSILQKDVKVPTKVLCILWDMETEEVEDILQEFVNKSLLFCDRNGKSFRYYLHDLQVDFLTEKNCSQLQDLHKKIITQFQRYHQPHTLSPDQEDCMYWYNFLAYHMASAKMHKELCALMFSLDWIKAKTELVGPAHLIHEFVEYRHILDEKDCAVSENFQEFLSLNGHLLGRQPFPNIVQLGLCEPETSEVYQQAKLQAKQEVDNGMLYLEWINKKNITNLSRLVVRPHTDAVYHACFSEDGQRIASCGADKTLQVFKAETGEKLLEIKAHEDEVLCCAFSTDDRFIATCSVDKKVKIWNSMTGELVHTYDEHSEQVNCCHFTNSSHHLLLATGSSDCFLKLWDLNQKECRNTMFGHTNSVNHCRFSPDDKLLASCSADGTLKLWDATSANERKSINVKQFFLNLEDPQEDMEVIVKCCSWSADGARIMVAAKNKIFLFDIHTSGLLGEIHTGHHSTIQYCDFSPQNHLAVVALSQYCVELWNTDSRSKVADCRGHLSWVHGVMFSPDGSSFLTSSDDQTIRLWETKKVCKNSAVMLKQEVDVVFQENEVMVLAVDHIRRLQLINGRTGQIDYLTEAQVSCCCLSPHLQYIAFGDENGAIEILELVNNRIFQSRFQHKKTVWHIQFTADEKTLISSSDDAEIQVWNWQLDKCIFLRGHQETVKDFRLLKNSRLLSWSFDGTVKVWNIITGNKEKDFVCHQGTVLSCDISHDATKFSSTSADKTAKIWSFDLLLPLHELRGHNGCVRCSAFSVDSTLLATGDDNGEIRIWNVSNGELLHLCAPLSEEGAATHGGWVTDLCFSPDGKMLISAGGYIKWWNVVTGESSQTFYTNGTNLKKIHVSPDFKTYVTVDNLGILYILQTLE

[7] = viability of HCT116 lacking mutant beta-catenin – cell-based, human colon tumor, dose response (AID 1045); format: functional;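 further: HCT116 colon tumor cells with beta catenin knocked out; cells exposed to compound for 60 hours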
[8] = target: T1, Small ubiquitin-related modifier 1; experiment: SUMO1 protein-protein binding blockers, potency – biochemical, FRET, dose response (AID 624383); format: functional; conditions: read-out: IC50_Mean
[9] = target: T3, Ubiquitin-conjugating enzyme E2 N (Homo sapiens, UniProt P61088); format: functional;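 further: Dose-response confirmation in a TR-FRET assay detecting UBC13-driven polyubiquitin chain formation, inhibition measured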
T3 sequence (P61088 whole entry): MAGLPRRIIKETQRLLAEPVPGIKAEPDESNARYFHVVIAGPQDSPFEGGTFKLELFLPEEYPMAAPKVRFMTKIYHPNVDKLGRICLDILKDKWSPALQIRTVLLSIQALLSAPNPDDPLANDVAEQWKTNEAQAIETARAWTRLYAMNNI

INS1 = experiment: INS-1E survival protection against cytokine death – cell-based, luminescence, retest, dose response (AID 449756); format: functional; conditions: Rattus norvegicus;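 further: cell death triggered by IL-1 beta plus TNF-alpha plus IFN-gamma mixture; protective hits raise ATP signal compared with cytokine alone wells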
Protein Wnt-3a = Protein Wnt-3a (Mus musculus, UniProt P27467); experiment: antagonism of Wnt3a pathway luciferase reporter – Wnt-LIGHT cells, luminescence, selectivity assay for Gli-SUFU antagonist project, dose response (AID 651570); format: functional; conditions: read-out: IC50_Mean;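 further: Wnt-LIGHT reporter cells stimulated with conditioned medium from Wnt3a-producing cells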
Sequence of Protein Wnt-3a (P27467 whole entry): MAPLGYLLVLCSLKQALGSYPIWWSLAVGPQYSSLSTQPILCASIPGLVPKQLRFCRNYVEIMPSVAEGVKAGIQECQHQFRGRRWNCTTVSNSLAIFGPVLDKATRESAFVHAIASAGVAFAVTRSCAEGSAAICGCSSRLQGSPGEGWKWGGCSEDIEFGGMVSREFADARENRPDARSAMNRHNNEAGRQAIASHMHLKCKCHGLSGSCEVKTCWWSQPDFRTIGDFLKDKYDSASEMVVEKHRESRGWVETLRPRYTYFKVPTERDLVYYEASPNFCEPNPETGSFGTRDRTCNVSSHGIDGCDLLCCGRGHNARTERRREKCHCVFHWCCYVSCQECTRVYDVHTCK

Melanocortin receptor 4 = Melanocortin receptor 4 (Homo sapiens, UniProt P32245); experiment: inhibitors of MC4R cAMP signaling – cell-based, TR-FRET, biased antagonists, dose response (AID 602298); format: functional;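 further: antagonist potency against agonist-stimulated cAMP production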
Sequence of Melanocortin receptor 4 (P32245 whole entry): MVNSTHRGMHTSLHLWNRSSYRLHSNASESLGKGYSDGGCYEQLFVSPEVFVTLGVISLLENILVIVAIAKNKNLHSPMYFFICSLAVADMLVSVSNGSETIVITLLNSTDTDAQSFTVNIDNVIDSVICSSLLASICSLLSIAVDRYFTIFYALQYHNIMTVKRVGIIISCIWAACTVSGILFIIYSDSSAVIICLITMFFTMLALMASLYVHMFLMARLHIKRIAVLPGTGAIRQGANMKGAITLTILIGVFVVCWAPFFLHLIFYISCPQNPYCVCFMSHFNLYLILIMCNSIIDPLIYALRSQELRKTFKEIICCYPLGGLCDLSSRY

[10] = cAMP pathway inhibition in counterscreen cell line – TR-FRET cAMP detection, counter-screen for MC4R biased antagonist project, dose response (AID 602305); format: functional, cell-based;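 further: U2OS cells stimulated with forskolin near its EC80 as the cAMP inducer; potency is for inhibition of forskolin-stimulated cAMP signaling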
[11] = target: Tyrosine-protein phosphatase non-receptor type 11 (Homo sapiens, UniProt Q06124); experiment: PTPN11 enzyme inhibitors – biochemical, selectivity assay for STEP inhibitor project, dose response (AID 602367); format: functional; conditions: read-out: IC50_Mean
Sequence of Tyrosine-protein phosphatase non-receptor type 11 (Q06124 whole entry): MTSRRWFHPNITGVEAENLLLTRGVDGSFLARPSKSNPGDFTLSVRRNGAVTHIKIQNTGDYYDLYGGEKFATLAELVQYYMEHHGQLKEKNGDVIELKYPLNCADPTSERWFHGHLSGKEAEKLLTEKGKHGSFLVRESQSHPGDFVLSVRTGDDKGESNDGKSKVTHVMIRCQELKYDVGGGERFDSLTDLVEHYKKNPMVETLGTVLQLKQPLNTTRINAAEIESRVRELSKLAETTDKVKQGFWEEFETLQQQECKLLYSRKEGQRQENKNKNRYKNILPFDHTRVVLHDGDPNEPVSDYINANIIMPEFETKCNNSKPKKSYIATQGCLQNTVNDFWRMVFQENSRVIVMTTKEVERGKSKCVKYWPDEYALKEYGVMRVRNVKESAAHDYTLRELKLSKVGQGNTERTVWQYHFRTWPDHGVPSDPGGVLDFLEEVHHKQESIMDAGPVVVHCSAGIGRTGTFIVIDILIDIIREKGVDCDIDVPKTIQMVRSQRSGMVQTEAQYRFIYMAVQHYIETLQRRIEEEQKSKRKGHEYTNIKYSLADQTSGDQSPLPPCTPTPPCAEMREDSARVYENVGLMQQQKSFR

[12] = target: T4, Methionyl-tRNA synthetase, putative (Trypanosoma brucei brucei, UniProt Q38C91); format: functional, Trypanosoma brucei brucei strain 927/4 GUTat10.1
T4 sequence (Q38C91 whole entry): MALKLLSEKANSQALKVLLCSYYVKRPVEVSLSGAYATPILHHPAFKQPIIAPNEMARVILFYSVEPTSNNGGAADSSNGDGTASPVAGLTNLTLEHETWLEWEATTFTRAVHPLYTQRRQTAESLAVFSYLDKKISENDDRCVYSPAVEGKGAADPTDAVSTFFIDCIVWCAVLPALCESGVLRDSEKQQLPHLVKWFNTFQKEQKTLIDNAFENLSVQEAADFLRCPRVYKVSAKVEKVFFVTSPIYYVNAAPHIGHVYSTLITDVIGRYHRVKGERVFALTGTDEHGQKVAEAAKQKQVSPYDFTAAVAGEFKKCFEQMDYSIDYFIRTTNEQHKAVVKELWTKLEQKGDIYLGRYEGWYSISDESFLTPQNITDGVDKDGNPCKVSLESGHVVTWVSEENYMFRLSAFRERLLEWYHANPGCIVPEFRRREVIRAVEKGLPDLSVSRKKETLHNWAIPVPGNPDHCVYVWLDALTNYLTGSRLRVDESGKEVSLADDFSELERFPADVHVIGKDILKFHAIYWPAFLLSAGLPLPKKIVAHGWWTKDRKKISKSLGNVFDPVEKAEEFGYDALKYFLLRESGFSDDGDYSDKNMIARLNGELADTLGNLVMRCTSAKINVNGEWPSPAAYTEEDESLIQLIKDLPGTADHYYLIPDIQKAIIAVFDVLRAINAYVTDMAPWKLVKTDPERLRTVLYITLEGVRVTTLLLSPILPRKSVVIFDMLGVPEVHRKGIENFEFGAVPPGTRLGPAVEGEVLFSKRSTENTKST

[13] = Counterscreen for inhibitors of Trypanosoma brucei methionyl tRNA synthetase (MetRS): Luminescence-based cell-based high throughput dose response assay to identify compounds that are cytotoxic to Jurkat human T lymphocyte cells.; format: functional
[14] = target: Tyrosine-protein phosphatase non-receptor type 5 (Homo sapiens, UniProt P54829); experiment: PTPN5 enzyme inhibition – biochemical, fluorescence intensity, uHTS hits, confirmation (AID 602372); format: functional; conditions: read-out: IC50_Mean
Sequence of Tyrosine-protein phosphatase non-receptor type 5 (P54829 whole entry): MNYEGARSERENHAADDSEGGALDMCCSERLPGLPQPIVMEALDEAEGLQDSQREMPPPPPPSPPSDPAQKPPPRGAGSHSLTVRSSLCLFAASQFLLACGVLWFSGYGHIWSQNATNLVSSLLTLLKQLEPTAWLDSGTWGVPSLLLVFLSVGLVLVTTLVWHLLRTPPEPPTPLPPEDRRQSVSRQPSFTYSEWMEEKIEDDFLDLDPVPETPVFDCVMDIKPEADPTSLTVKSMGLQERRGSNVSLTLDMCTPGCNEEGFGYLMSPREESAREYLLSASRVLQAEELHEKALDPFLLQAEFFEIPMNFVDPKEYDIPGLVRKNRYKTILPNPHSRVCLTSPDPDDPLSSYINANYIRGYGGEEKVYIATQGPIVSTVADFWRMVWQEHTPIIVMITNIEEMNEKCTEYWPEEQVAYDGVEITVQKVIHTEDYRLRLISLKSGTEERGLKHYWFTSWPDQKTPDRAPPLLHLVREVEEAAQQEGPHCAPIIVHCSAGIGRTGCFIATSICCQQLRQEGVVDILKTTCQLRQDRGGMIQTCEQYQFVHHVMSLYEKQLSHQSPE

[15] = target: T4, Methionyl-tRNA synthetase, putative; format: functional, Trypanosoma brucei brucei strain 927/4 GUTat10.1; remark: listed apart in the source
[16] = target: Dual specificity protein phosphatase 3 (Homo sapiens, UniProt P51452); experiment: VHR phosphatase inhibition, dose response, selectivity assay for STEP inhibitor project, biochemical (AID 602374); format: functional; conditions: read-out: IC50_Mean
Sequence of Dual specificity protein phosphatase 3 (P51452 whole entry, the tested form may be a part): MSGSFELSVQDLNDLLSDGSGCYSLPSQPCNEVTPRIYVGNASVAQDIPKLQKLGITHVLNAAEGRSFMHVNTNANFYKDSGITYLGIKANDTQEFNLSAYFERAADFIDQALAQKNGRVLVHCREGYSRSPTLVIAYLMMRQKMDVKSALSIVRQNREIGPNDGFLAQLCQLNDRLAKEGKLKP

[17] = target: T5, RNA-binding protein pos-1 (Caenorhabditis elegans, UniProt G5EF15); experiment: disruptors of C. elegans POS-1 RNA interaction – biochemical, fluorescence polarization, dose response (AID 1964);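 further: purified POS-1 fused to maltose binding protein made in E. coli; potency of compounds blocking POS-1 binding to fluorescent RNA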
T5 sequence (G5EF15 whole entry): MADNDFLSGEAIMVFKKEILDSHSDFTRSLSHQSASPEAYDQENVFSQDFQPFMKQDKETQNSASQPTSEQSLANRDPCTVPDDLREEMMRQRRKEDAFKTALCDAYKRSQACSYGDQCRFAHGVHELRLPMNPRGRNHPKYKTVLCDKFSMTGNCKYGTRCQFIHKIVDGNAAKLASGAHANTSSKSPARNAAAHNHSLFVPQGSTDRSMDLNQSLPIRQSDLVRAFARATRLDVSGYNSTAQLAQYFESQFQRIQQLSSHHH

Vero [18] = experiment: viability of Vero cells under compound – cytotoxicity control for flavivirus capping enzyme inhibitors (AID 588742); format: functional; conditions: Chlorocebus sabaeus
Vero [19] = experiment: cells; format: functional; conditions: Chlorocebus sabaeus
[20] = loss of viability in HepG2 cells – cell-based, CellTiter-Glo, cherry-picked, cytotoxicity control for Shn3 inhibitor project, dose response (AID 624134); format: functional
[21] = reduction of Shn3 3'UTR-driven luciferase in osteoblasts – cell-based, Clone20 osteoblasts, firefly luciferase, cherry-picked, dose response (AID 624132); format: functional;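 further: firefly luciferase luminescence from reporter carrying the Shn3 3'UTR in osteoblasts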
[22] = target: T6, Zinc finger protein mex-5 (Caenorhabditis elegans, UniProt Q9XUB2); experiment: potency of MEX-5 RNA-binding blockers – biochemical, C. elegans, fluorescence polarization, dose response (AID 1960)
T6 sequence (Q9XUB2 whole entry): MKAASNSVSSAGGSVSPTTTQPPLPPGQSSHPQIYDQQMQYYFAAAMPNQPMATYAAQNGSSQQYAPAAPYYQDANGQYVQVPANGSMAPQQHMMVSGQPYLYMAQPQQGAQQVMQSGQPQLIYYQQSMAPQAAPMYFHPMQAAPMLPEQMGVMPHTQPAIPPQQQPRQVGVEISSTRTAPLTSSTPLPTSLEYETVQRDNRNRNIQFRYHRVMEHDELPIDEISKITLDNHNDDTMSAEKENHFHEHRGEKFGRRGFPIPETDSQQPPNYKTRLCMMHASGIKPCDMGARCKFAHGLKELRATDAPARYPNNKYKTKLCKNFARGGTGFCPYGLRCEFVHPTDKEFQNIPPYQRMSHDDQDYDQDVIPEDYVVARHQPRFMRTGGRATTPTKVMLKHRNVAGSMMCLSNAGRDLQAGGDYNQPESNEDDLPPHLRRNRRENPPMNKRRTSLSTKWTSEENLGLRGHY

Genome polyprotein = Genome polyprotein (dengue virus type 2, UniProt P29990); experiment: flavivirus cap methylation enzyme inhibition – biochemical, confirmation dose response, primary screen (AID 588689); format: functional
Sequence of Genome polyprotein (P29990 2492-3391 limits assumed): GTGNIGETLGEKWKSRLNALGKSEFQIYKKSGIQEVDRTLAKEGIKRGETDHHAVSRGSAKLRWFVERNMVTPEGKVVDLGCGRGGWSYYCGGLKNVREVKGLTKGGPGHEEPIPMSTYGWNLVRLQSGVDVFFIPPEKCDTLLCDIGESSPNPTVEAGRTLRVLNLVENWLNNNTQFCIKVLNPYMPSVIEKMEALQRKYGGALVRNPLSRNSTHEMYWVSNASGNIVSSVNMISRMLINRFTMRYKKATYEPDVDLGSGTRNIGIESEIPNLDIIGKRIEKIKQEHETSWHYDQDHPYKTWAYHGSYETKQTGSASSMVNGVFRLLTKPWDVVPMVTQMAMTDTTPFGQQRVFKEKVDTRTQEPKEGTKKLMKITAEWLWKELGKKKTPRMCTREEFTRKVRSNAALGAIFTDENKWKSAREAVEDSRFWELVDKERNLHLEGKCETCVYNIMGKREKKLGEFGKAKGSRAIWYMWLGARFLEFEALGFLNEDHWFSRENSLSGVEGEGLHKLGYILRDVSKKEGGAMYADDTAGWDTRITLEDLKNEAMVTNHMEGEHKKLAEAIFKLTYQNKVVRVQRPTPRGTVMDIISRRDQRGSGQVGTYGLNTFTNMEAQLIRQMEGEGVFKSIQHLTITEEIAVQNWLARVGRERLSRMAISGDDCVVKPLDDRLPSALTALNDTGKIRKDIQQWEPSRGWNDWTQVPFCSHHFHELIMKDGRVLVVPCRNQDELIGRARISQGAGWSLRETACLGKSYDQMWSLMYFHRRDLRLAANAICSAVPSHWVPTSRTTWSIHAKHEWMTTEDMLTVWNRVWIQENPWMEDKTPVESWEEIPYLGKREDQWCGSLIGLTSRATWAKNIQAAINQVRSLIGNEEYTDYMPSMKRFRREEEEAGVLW

[23] = non-specific 3'UTR reporter inhibition in Clone20-Shn3RL – cell-based, Renilla luciferase, cherry-picked, counter-screen for Shn3 inhibitor project, dose response (AID 624133); format: functional
[24] = target: Mitogen-activated protein kinase 13 (Homo sapiens, UniProt O15264); format: functional
Sequence of Mitogen-activated protein kinase 13 (O15264 whole entry): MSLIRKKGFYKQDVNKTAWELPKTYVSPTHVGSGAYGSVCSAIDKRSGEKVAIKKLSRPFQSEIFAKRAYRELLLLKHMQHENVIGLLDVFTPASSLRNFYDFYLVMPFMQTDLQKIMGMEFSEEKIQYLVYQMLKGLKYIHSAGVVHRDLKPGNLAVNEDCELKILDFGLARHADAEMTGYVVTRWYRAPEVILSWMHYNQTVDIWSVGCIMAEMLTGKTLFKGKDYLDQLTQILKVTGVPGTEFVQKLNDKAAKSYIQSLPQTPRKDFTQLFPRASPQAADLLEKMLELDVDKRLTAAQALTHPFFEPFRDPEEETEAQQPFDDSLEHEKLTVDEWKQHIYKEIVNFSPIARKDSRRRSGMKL

[25] = mammalian cell viability loss – Alamar Blue, dry powder, cytotoxicity control for antifungal single agent project, dose response (AID 602188); format: functional, cell-based
[26] = inhibition of ARNT PAS-B/TACC3 complex formation – biochemical, AlphaScreen, cherry-picked samples, confirmation (AID 651703); format: functional, Homo sapiens;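 further: His-tagged ARNT PAS-B domain paired with GST-TACC3 E629A dimer coactivator fragment; potency of inhibitors that break up the complex and lower AlphaScreen signal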

CCCCCCCCCCCCCCCC[n+]1ccc(C(N)=O)cc1
EC50 [1]: 6.2 µM (active) | AC50 [2]: 8.77 µM (active) | IC50 [3]: 74.4 µM (inactive) | IC50 [4]: 25.1 µM (active) | IC50 [5]: > 66.6 µM (inactive) | IC50 [6]: 25.7 µM (active) | EC50 [7]: 6.46 µM (active) | IC50 [8]: 13.8 µM (active) | IC50 [9]: > 20 µM (inactive)

CCN(CC)C(=O)c1ccc(S(=O)(=O)N2CCC(c3nc4ccccc4s3)CC2)cc1
AC50 (INS1): 5.69 µM (active) | IC50 (Protein Wnt-3a): 39.7 µM (inactive)

CCN(C(=O)COC(=O)CSc1ccc(C(N)=O)cc1[N+](=O)[O-])C1CCCCC1
IC50 (Melanocortin receptor 4): > 64.6 µM (inactive) | IC50 [10]: > 64.6 µM (inactive)

Cc1ccc(S(=O)(=O)c2cnc3ccc(Cl)cc3c2O)cc1
IC50 [11]: 14.5 µM (active) | IC50 [12]: 119 µM (inactive) | IC50 [13]: 83.4 µM (inactive) | IC50 [14]: 39.1 µM (inactive) | IC50 [15]: 4.9 µM (active) | IC50 [16]: 26.9 µM (inactive)

CCOc1cc(/C=C2/C(=O)ON=C2C)ccc1OCc1ccccc1F
EC50 [17]: 53.5 µM (active) | CC50 (Vero [18]): > 40 µM (active) | CC50 (Vero [19]): > 25 µM (active) | AC50 [20]: 69.3 µM (active) | AC50 [21]: 6.95 µM (active) | EC50 [22]: 37.3 µM (inconclusive) | IC50 (Genome polyprotein): 41.5 µM (active) | AC50 [23]: 28.2 µM (active)

NC1C2CN(c3nc4c(cc3F)c(=O)c(C(=O)O)cn4-c3ccc(F)cc3F)CC12 (stereo not given)
Ki [24]: > 7.94 µM (inactive)

Oc1c(C(c2ccccc2Cl)N2CCCCC2)ccc2cccnc12 (stereo not given)
AC50 [25]: 5.69 µM (active)

C[C@@H]1CN([C@H](C)CO)C(=O)c2cc(N(C)C)ccc2O[C@@H](C)CCCCO[C@@H]1CN(C)Cc1ccc2c(c1)OCO2
AC50 [26]: 74.9 µM (active)
